Values joined by “and” are separate entries in the source; they are usually repeats but may differ in a detail not shown here. Equal entries are not always repeated.
Assays:
Listeria species = assay: Dip treatment of inoculated frankfurters, qualitative (enrichment) procedure with TECRA Listeria ELISA; type: cell-based, Listeria monocytogenes; parameters: key: POS: Positive indicates that at least one colony grew during the test; NEG: Negative indicated that no colonies grew
Method: Following air drying, one frank per treatment was placed in a sterile Stomacher bag and analyzed quantitatively for residual L. monocytogenes populations. The remaining two franks were retained in sterile Stomacher bags and used for qualitative analysis, if necessary (in the event no surviving cells were detected using quantitative procedures).
The plating techniques used were capable of detection down to 5 cfu/ml (1 colony/0.2 ml) for the spiral plating method and 0.5 cfu/ml for the spread plating method (1 colony/2 ml). In the event that no surviving L. monocytogenes cells were observed using direct plating procedures, two franks per treatment were evaluated using qualitative (enrichment) procedures. A 10 mL aliquot of the retained homogenate was placed added to 90 mL of UVM broth to achieve a 1:10 dilution. These samples were shaken by hand for 1 minute and incubated at 30° C. for 24 h. Following this primary enrichment, 0.1 mL was transferred to 10 mL of Fraser broth and incubated at 30° C. for 24 h. This secondary enrichment was then used to perform an ELISA screening procedure (TECRA Listeria species assay). Results of this qualitative analysis were used to indicate whether the sample was “positive” or “negative” for the presence of Listeria species.
The target inoculation level before treatment was 1,000 CFU/frank. It can be seen that a 2 second treatment is sufficient to remove most, but not all Listeria from the franks. A 10 second treatment reduces the Listeria count below the detection limit of the quantitative assessment procedures, although a few colonies were detected in the qualitative procedure. […] Therefore, the true population of any samples with a population of <90 CFU/frank could not be specifically determined.

E. coli = type: cell-based; conditions: E. coli; 35 °C, 24 hrs
Method: (§1) Each strain was subcultured on tryptic soy agar (TSA, DIFCO, Detroit, Mich.) slants and stored at 4° C. Strains were individually transferred into 100 mL of sterile 2× BHI (DIFCO, Detroit, Mich.) and incubated at 35° C. for 24 hr. to reach ca. 10^9 colony forming units/mL (CFU/mL). Then, 25 mL of each strain of E. coli was transferred into a sterile bottle (mixture X), and 25 mL of each strain of each strain of Salmonella spp. was transferred into a sterile bottle (mixture Y). Mixtures X and Y were maintained separately throughout the test.
(§2) Serial dilutions were made using Butterfields' Phosphate Buffer (BPB, Sigma, St. Louis, Mo.) in 1 mL aliquots prior to inoculation. BPB was prepared as a stock solution by adding 34 g Of KH2PO4 to 500 mL of distilled water. The pH was adjusted to 7.2, and the solution was brought to a volume of 1 L. The BPB stock was autoclaved for 20 min. at 121° C. and 15 lbs. of pressure. […] For glacial acetic acid (U.S.P.-F.C.C., J. T. Baker, Phillipsburg, N.J.), starting concentrations and serial dilutions were 50%, 25%, 12.5%, 6.25%, 3.12%, 1.56%, 0.78%, 0.39%, and a control (no treatment, buffer and culture). […] For peracetic acid 35.0% (STERIS 20™, STERIS Corporation, Mentor, Ohio), starting concentrations and serial dilutions were 17.5%, 8.75%, 4.38%, 2.19%, 1.09%, 0.55%, 0.30%, 0.14%, 0.07%, 0.03%, and a control. For liquid smoke (Hickory Specialties, Brentwood, Tenn.) starting concentrations and serial dilutions were 50%, 25%, 12.5%, 6.25%, 3.12%, 1.56%, 0.78%, 0.39%, and a control. Dilutions were prepared with deionized water.
(§3) The test tubes were incubated at 35° C. for 24 hrs. and turbidity was evaluated using McFarland equivalence standards, to study the bacteriostatic properties of the diluted solutions. In addition, each dilution was plated to evaluate the bactericidal properties of, the diluted solutions. Using a 1 μL sterile loop, each concentration and control for either microorganism mixture was streaked on plate count agar (PCA, DIFCO, Detroit, Mich.). A selective agar was also used for each mixture, eosine methylene blue agar (EMB, DIFCO, Detroit, Mich.) for E. coli and xylose lysine decarboxylase agar (XLD, DIFCO, Detroit,Mich.) for Salmonella spp. All plates were incubated for 24 hrs. at 35° C. and were inspected for growth or no growth.

Salmonella spp. = type: cell-based; conditions: 35 °C, 24 hrs
Method: as §1, §2, §3

Structure (SMILES): CC(=O)OO [peracetic acid]
- POS/NEG (qualitative analysis after treatment) (Listeria species; PAA 100 ppm (actual 114 ppm), 2 sec exposure, 2 sec rinse): POS
- POS/NEG (qualitative analysis after treatment) (Listeria species; PAA 100 ppm (actual 114 ppm), 10 sec exposure, 10 sec rinse): POS
- POS/NEG (qualitative analysis after treatment) (Listeria species; PAA 500 ppm (actual 572 ppm), 2 sec exposure, 2 sec rinse): POS
- POS/NEG (qualitative analysis after treatment) (Listeria species; PAA 500 ppm (actual 572 ppm), 10 sec exposure, 10 sec rinse): POS and NEG
- POS/NEG (qualitative analysis after treatment) (Listeria species; PAA 1000 ppm (actual 1146 ppm), 2 sec exposure, 2 sec rinse): NEG and POS
- POS/NEG (qualitative analysis after treatment) (Listeria species; PAA 1000 ppm (actual 1146 ppm), 10 sec exposure, 10 sec rinse): NEG and POS
- MIC (%) (E. coli): 0.137% and 0.14%
- MIC (%) (Salmonella spp.): 0.137% and 0.14%

Source: patent US6767569B1, “Surface decontamination of cooked sausage and processed meat and poultry products” (priority 1999, dated 2004)
